The record followed here is US11584928B2, “Methods for generating barcoded combinatorial libraries” (The Regents of the University of Colorado, priority 2016, dated 2023).

The series has as its system galK. As to the kind of experiment: galK editing with MAD2 or MAD7 nuclease and various guide nucleic acid scaffolds, white/red screening. The class given is cell-based, E. coli. The following applies: guide sequence targeting galK. The text has this: MAD2 and MAD7 nucleases are nucleic acid-guided nuclease that can be used in the methods disclosed herein. Nucleases Mad2 (SEQ ID NO: 2) and Mad 7 (SEQ ID NO: 7) were cloned and transformed into cells. Editing cassettes designed to mutate a target site in a galK gene were designed with mutations, which allowed for white/red screening of successfully editing colonies. The editing cassettes also encoded a guide nucleic acid designed to target galK. The editing cassettes were transformed into E. coli cells expressing MAD2, MAD7, or Cas9. […] In this example, the guide nucleic acid used with MAD2 and MAD7 comprised a scaffold-12 sequence and a guide sequence targeting galK. The guide nucleic acid used with Cas9 comprised a sequence compatible with the S. pyogenes Cas9.
FIG. 32 and Table 3 show more examples of gene editing using the MAD2 nuclease. In this experiment, different guide nucleic acid sequences were tested. The guide sequence of the guide nucleic acids targeted the galK gene as described above. The scaffold sequence of the guide nucleic acids were one of various sequences tested as indicated.
FIG. 33 and Table 4 show more examples of gene editing using the MAD7 nuclease. In this experiment, different guide nucleic acid sequences were tested. The guide sequence of the guide nucleic acids targeted the galK gene as described above. The scaffold sequence of the guide nucleic acids were one of various sequences tested as indicated. […] Table 3 and Table 4 also provided the designed mutations in the editing cassettes that were used to mutate the galK target gene.
Consider “scaffold-5: guide nucleic acid scaffold sequence, SEQ ID NO: 88 (guide CCGTCTAAAACTCATTCAGAATTTCTACTAGTGTAGAT; chemistry not given here)”, for which the “formation of functional complexes with MAD2” value (from here on “formation … with MAD2”) is “able to form functional complexes”.
“scaffold-10: guide nucleic acid scaffold sequence, SEQ ID NO: 93 (guide CTCTACAACTGATAAAGAATTTCTACTTTTGTAGAT; chemistry not given here)”: the “formation … with MAD2” value is on record as “able to form functional complexes” and the “formation of functional complexes with MAD7” value (shortened to “formation … with MAD7”) is recorded as “able to form functional complexes”.
Consider “scaffold-11: guide nucleic acid scaffold sequence, SEQ ID NO: 94 (guide GTCTGGCCCCAAATTTTAATTTCTACTGTTGTAGAT; chemistry not given here)”, for which the “formation … with MAD2” value was “able to form functional complexes” and the “formation … with MAD7” value is on record as “able to form functional complexes”.
Take “scaffold-12: guide nucleic acid scaffold sequence, SEQ ID NO: 95 (guide GTCAAAAGACCTTTTTAATTTCTACTCTTGTAGAT; chemistry not given here)”: the “formation … with MAD2” value is on record as “able to form functional complexes” and the “formation … with MAD7” value was “able to form functional complexes”.
